The values that follow come from PubChem BioAssay AID489033 (Sanford-Burnham Center for Chemical Genomics, 2010).

The source made the active and inactive calls. How the calls were made is not given here. A value given as a limit tells only on which side of the number the result lay.

For this assay, the system named is 697B B-cell line, NF-kB luciferase reporter luminescence. Briefly: inhibitors of B-cell NF-kB luciferase signal – 697B cells, luminescence, selectivity assay for T-cell antigen receptor NF-kB inhibitors, dose response (AID 489033).

As usually defined, the IC50 is the concentration that inhibits the measured activity by half.

On to `COC(=O)c1cn(NC(=O)c2cc([N+](=O)[O-])ccc2F)c(=O)c2ccccc12`, for which the IC50 is 2.43 µM.

`CCOC(=O)c1ccccc1NS(=O)(=O)c1ccc(OCC)cc1`: the IC50 is > 80 µM (inactive).

On to `CCCCC(=O)NC(c1ccc(N(CC)CC)cc1)c1ccc2cccnc2c1O` (stereo unspecified), for which the IC50 was > 80 µM (inactive).

Regarding `Cc1cc2c(cc1C)C(c1ccccc1OC(C)C)CC(=O)N2` (stereo unspecified), the IC50 was > 80 µM (inactive).

Take `CC[C@@]1(O)C(=O)OCc2c1cc1n(c2=O)Cc2cc3c(N)cccc3nc2-1`: the IC50 was 0.62 µM.

With `Cc1ccc(S(=O)(=O)Nc2cccc(-c3ccc4nncn4n3)c2)cc1`, the IC50 was > 80 µM (inactive).

Turning to `Cc1ccccc1NS(=O)(=O)c1ccc(N2CCCC2=O)cc1`, the IC50 is > 80 µM (inactive).

Take `COc1ccc(-n2nnnc2-c2ccccc2)cc1`: the IC50 was > 80 µM (inactive).

In the case of `CCn1c2ccccc2c2cc(Nc3cc(C)nc4ncnn34)ccc21`, the IC50 is 47 µM (inactive).

Consider `O=C(Nc1ccc(Cl)c(S(=O)(=O)N2CCOCC2)c1)c1ccc(OCC2CCCO2)cc1` (stereo unspecified), for which the IC50 was 4.54 µM.

Turning to `Cc1cc(-c2ccc(S(=O)(=O)N(C)c3ccc(C)c(C)c3)s2)on1`, the IC50 was > 80 µM (inactive).

For `c1ccc(-c2noc(-c3ccc4c(c3)OCO4)n2)nc1`, the IC50 is 1.27 µM.

For the compound `CC(=O)c1sc2c(c1OC(=O)c1ccc(Cl)cc1Cl)c(=O)n(-c1ccccc1)c(=S)n2-c1ccccc1`, the IC50 is 1.93 µM.

In the case of `Cc1cc(NC(=O)CSc2nc3c(sc4ccccc43)c(=O)n2CCCN2CCOCC2)n[nH]1`, the IC50 was > 80 µM (inactive).

As to `Cn1cc(/C=N/n2cnc3scc(-c4ccc(Cl)cc4)c3c2=O)c2ccccc21`, the IC50 is > 80 µM (inactive).

Consider `C[C@]12CC[C@H]3[C@@H](CC[C@]4(O)C[C@@H](O)CC[C@]34C=O)[C@@]1(O)CC[C@@H]2C1=CC(=O)OC1`, for which the IC50 is 1.13 µM.

For the compound `CC(=O)c1ccc(Oc2cc(C)nc(-n3nc(C)cc3C)n2)cc1`, the IC50 was > 80 µM (inactive).

`Cc1ccc(S(=O)(=O)Cc2ccc(C(=O)N3CCN(c4cccc(C)c4C)CC3)o2)cc1`: the IC50 is 57.9 µM (inactive).

Consider `CCC(=O)NC(c1cccs1)c1ccc2cccnc2c1O` (stereo unspecified), for which the IC50 is > 80 µM (inactive).

For `Nc1ncn([C@@H]2O[C@H](CO)[C@@H](O)[C@H]2O)c(=O)n1`, the IC50 is 11.9 µM.

Regarding `CC(C)Oc1ccccc1C1CC(=O)Nc2cc3c(cc21)OCCO3` (stereo unspecified), the IC50 was 59.5 µM (inactive).

For `O=C(O)c1ccc(-c2ccc(-c3ccccc3)cc2)s1`, the IC50 was 2.46 µM.

As to `COc1ccc(-c2ccc3oc(-c4ccc(OC)cc4)c(C#CCO)c3c2)cc1`, the IC50 is > 80 µM (inactive).

Turning to `Clc1cccc(Cl)c1/C=N/Nc1c(Cl)cncc1Cl`, the IC50 was > 80 µM (inactive).

For `COc1cccc(CN(C)C(=O)c2cc(COc3ccc4ncccc4c3)on2)c1`, the IC50 is > 80 µM (inactive).

For `CCCCN1/C(=C/c2ccc3ccccc3[n+]2CC)Sc2ccccc21`, the half-maximal inhibitory concentration (IC50) was 8.19 µM.

Regarding `COc1ccc(N/N=C/c2c(C(=O)O)ccc3ccccc23)cc1`, the IC50 was 58.4 µM (inactive).

As for `COc1cccc(/C=N/NC(=O)c2[nH]nc3c2CCc2ccccc2-3)c1O`, the IC50 is 61.7 µM (inactive).

As for `O=C(Sc1cccc2cccnc12)c1ccccc1Br`, the IC50 is 3.61 µM.

`COc1cccc(-c2cc(=O)c3cc(NC(=O)c4ccc(N(C)C)cc4)ccc3[nH]2)c1`: the IC50 was > 80 µM (inactive).

For the compound `COc1ccccc1C(=O)Nc1nc2ccccc2s1`, the IC50 is 0.53 µM.

In the case of `Oc1ccccc1N=Nc1nc(-c2ccccc2)c(-c2ccccc2)[nH]1`, the half-maximal inhibitory concentration (IC50) was 4.55 µM.

Consider `CCOC(=O)c1ccc(NC(=O)Cn2cnc3cc(C)c(C)cc32)cc1`, for which the IC50 was > 80 µM (inactive).

With `CCOc1ccccc1C(=O)N1CCN(c2cccc(Cl)c2)CC1`, the IC50 is > 80 µM (inactive).

On to `CCOC(=O)C(C)Oc1cccc2c(=O)n(CC(=O)NCc3ccccc3)ccc12` (stereo unspecified), for which the IC50 was > 80 µM (inactive).

For the compound `CCc1ccc(/C=N/NC(=O)c2cc(C3CC3)nc3ccccc23)s1`, the IC50 is 23.3 µM (inactive).

As for `N#C/C(=C\c1ccc(OCc2ccc(C(=O)O)cc2)cc1)C(=O)N1CCOCC1`, the IC50 is 5.92 µM.

With `CCc1cc(C(=O)NC2CCCc3c2cnn3-c2cccc(C)c2C)n(C)n1` (stereo unspecified), the IC50 was > 80 µM (inactive).

Consider `CCCCN=C[C@]12CCC(O)CC1(O)CCC1[C@@H]2CC[C@]2(C)[C@H](C3C=CC(=O)O3)CCC12O` (stereo partly specified), for which the IC50 was 2.49 µM.

In the case of `C=CCOC(=O)c1[nH]c2c(c1C)C(=O)CC(c1ccco1)C2` (stereo unspecified), the IC50 is > 80 µM (inactive).

Regarding `Cc1ccc(C(=O)O/N=C(\N)c2ccccn2)c(C)c1`, the IC50 is 0.85 µM.

Consider `O=C(Nc1ncc(Cc2ccc(SC(F)F)cc2)s1)c1ccc(OC(F)F)cc1`, for which the IC50 was > 80 µM (inactive).

Turning to `CCOc1cccc(/C=N/Nc2ccc(S(=O)(=O)N(CC)CC)cn2)c1O`, the IC50 was 11.3 µM.

Consider `O=C1C=C(c2ccc3ncccc3c2)C[C@@H](c2ccc3c(c2)OCO3)C1`, for which the IC50 is > 80 µM (inactive).

`CN(C)S(=O)(=O)c1ccc(Nc2nc(C3CC3)nc3c2nnn3Cc2ccccc2Cl)cc1`: the IC50 is > 80 µM (inactive).

On to `C/C=C(\C)C(=O)N[C@@H](c1ccccc1)[C@@H](O)C(=O)O[C@H]1C[C@@]2(O)[C@@H](OC(=O)c3ccccc3)C3[C@](C)(C(=O)[C@H](O)C(=C1C)C2(C)C)[C@@H](O)C[C@H]1OC[C@@]31OC(C)=O` (stereo partly specified), for which the IC50 was > 80 µM (inactive).

On to `c1cc2c(cc1C1=NNC(=NC3CC3)SC1)OCCO2`, for which the IC50 is 0.3 µM.

For `Cn1ncc2c(N3CCN(c4ccc(Cl)c(Cl)c4)CC3)ncnc21`, the IC50 was > 80 µM (inactive).

In the case of `COc1ccccc1NC(=O)c1cnc(Nc2ccccc2OC)c2ccccc12`, the IC50 was > 80 µM (inactive).

Turning to `CCn1ncc(C2=NOC(C(=O)NCc3ccccc3)C2)c1C` (stereo unspecified), the IC50 was > 80 µM (inactive).

Regarding `COc1cc(-c2c(-c3cc(OC)c(OC)c(OC)c3)noc2C)ccc1F`, the IC50 was > 80 µM (inactive).

With `CCN(CC)c1ccc(-c2nn3c(-c4n[nH]c5c4CCC5)nnc3s2)cc1`, the IC50 is > 80 µM (inactive).

For the compound `Cc1nc(Sc2nnnn2C)c2c3c(sc2n1)CCC3`, the IC50 is > 80 µM (inactive).

With `C[C@@H]1O[C@@H](O[C@H]2C[C@@H](O)[C@]3(CO)[C@@H]4C(CC[C@]3(O)C2)[C@@]2(O)CC[C@H](C3COC(=O)C3)[C@@]2(C)C[C@H]4O)[C@H](O)[C@H](O)[C@H]1O` (stereo partly specified), the 50% inhibitory concentration (IC50) was 12.2 µM.

In the case of `CC1CCN(c2c(NCc3ccc(C(=O)N4CCc5ccccc54)cc3)c(=O)c2=O)CC1`, the IC50 was > 80 µM (inactive).

As to `Nc1nc(Cl)cc(N2CCC(c3cc(-c4ccc(Cl)cc4)n[nH]3)CC2)n1`, the IC50 was 5.28 µM.

With `CC(C)(C)C(=O)Nc1ccc(NC(=O)c2ccco2)nc1`, the IC50 was 1.47 µM.

Take `CCOc1ccc2c(c1)sc(N)[n+]2Cc1cc(C)cc2cccnc12`: the IC50 is 33.3 µM (inactive).

With `COc1ccc(C(=O)/C(C#N)=N/Nc2ccc([N+](=O)[O-])cc2)cc1`, the 50% inhibitory concentration (IC50) was 18.6 µM.

`COc1cccc(/C=N/Nc2ncnc3scc(-c4ccccc4)c23)c1O`: the IC50 was 39.8 µM (inactive).

For the compound `COc1cccc(N2CCN(c3ncnc4c3cnn4-c3ccc(C)cc3C)CC2)c1`, the IC50 was 1.58 µM.

With `COc1ccc(OC)c(C2CC(=O)c3c([nH]c(C(=O)OC(C)C)c3C)C2)c1` (stereo unspecified), the IC50 is > 80 µM (inactive).

In the case of `CCOc1ccc(Nc2cc(C)nc(-n3nc(C)cc3C)n2)cc1`, the IC50 was > 80 µM (inactive).

`COc1ccc(C)cc1NS(=O)(=O)c1ccc(-c2cnc(C3CC3)o2)cc1`: the IC50 is > 80 µM (inactive).

As for `Cn1nc([N+](=O)[O-])nc1Sc1nnc(-c2ccccc2)o1`, the concentration for half-maximal inhibition (IC50) was 17.8 µM.

In the case of `CS(=O)(=O)c1ccc(Sc2nc3ccccc3s2)c([N+](=O)[O-])c1`, the IC50 was 1.11 µM.

Consider `Cc1nn(C)c(C)c1CN(Cc1nc(CCC(C)C)no1)C(C)C`, for which the IC50 is > 80 µM (inactive).

For `Cc1c(C)c2ccc(OCC(=O)Nc3ccccn3)c(C)c2oc1=O`, the half-maximal inhibitory concentration (IC50) is 7.65 µM.

As to `Cc1cc(/C=C2\Sc3ccccc3N2C)cc(C)[n+]1CC1CCCO1` (stereo unspecified), the IC50 was > 80 µM (inactive).

On to `COC(=O)C1=C(CN2CCCc3ccccc32)NC(=O)NC1c1ccc(F)cc1` (stereo unspecified), for which the IC50 is 3.48 µM.

On to `CC1(C)Cc2nc3sc4c(=O)n(CC(=O)NCc5ccccc5)cnc4c3cc2CO1`, for which the IC50 was > 80 µM (inactive).

With `CCOC(=O)c1[nH]c(C)c(C(=O)Nc2ccccc2C)c1C`, the IC50 is 40.3 µM (inactive).

For the compound `O=C(OCCN1C(=O)c2cccc3c(N4CCOCC4)ccc(c23)C1=O)c1ccc(Cl)cc1`, the IC50 is > 80 µM (inactive).

`COc1ccccc1N1CCN(C(=O)C2c3ccccc3Oc3ccccc32)CC1`: the IC50 is > 80 µM (inactive).

With `COc1ccc(OC)c(Nc2cc(-c3ccccc3)nc(N)n2)c1`, the IC50 was > 80 µM (inactive).

As to `Cc1ccc(C(=O)c2cc([N+](=O)[O-])ccc2N2CCOCC2)cc1C`, the IC50 was > 80 µM (inactive).

`Cc1cccc(N2CCN(C(=O)c3ccc(S(=O)(=O)N(C)c4ccccc4)cc3)CC2)c1C`: the IC50 was > 80 µM (inactive).

For the compound `NS(=O)(=O)c1ccc(Sc2nc3ccccc3s2)c([N+](=O)[O-])c1`, the IC50 was 1.34 µM.

For `CCCC(=O)Nc1nc2ccc(NC(=O)c3c(F)c(F)c(OC)c(F)c3F)cc2s1`, the IC50 was > 80 µM (inactive).

For the compound `CCCCCn1c2c(c(=N)c3ccccc31)CCC2`, the IC50 was 50.3 µM (inactive).

Turning to `COc1ccc(NS(=O)(=O)c2ccc(-c3cnc(C4CC4)o3)cc2)cc1OC`, the IC50 was > 80 µM (inactive).

In the case of `Cc1ccc2nc(SCC(=O)Nc3cc(C(F)(F)F)ccc3N3CCOCC3)[nH]c2c1`, the IC50 was > 80 µM (inactive).

Turning to `Cc1ccc(NC(=O)CSc2nc(-c3ccco3)cc(C(F)(F)F)n2)cc1C`, the IC50 is > 80 µM (inactive).

For the compound `Cc1nc(NCc2ccco2)c2c(C)c(C)sc2n1`, the IC50 is 5.3 µM.

For `COc1ccc(OC)c(-c2nnc3n2N=C(c2ccc(OC)c(OC4CCCC4)c2)CS3)c1`, the IC50 was 35.3 µM (inactive).

On to `CC(C)CC[n+]1ccccc1/C=C/c1ccc(N(C)C)cc1`, for which the IC50 is > 80 µM (inactive).
